Results as given in ChEMBL document CHEMBL1158371, “Design, synthesis, and evaluation of biphenyl-4-yl-acrylohydroxamic acid derivatives as histone deacetylase (HDAC) inhibitors” (Eur J Med Chem, 2009).
Calls of active or inactive are those of the source. No cut-off for these calls is given here.

Assays:
[1] = system: IGROV-1; assay: Antiproliferative activity against human IGROV1 cells after 72 hrs; type: functional, cell-based; settings: IGROV-1, 72 h
[2] = system: IGROV-1; assay: Antiproliferative activity against cisplatin-resistant human IGROV1 cells after 72 hrs; type: functional, cell-based; settings: IGROV-1, 72 h
[3] = molecular target: Histone deacetylase 2 (Homo sapiens, UniProt Q92769); assay: Inhibition of HDAC2 in human HeLa cells; type: cell-based
Chain of Histone deacetylase 2 (Q92769 whole entry): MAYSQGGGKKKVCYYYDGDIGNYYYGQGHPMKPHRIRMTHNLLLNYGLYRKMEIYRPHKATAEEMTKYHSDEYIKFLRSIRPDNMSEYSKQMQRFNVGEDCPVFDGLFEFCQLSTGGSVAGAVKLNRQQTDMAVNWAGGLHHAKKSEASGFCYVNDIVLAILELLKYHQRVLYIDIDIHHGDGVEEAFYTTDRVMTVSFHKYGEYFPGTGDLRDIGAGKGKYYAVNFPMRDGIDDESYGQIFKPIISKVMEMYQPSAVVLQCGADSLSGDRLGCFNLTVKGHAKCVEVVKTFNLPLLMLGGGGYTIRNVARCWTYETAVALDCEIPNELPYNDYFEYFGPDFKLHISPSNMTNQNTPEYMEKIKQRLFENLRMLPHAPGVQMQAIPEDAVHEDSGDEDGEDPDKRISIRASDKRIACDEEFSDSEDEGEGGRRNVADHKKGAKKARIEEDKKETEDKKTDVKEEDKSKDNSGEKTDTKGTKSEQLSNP

[4] = system: NCI-H460; assay: Antiproliferative activity against human H460 cells after 72 hrs; type: functional, cell-based; settings: NCI-H460, 72 h
[5] = system: HCT-116; assay: Antiproliferative activity against human HCT116 cells after 72 hrs; type: functional, cell-based; settings: HCT-116, 72 h
[6] = system: Mus musculus; assay: Toxicity in athymic nude Swiss mouse bearing human HCT116 cells assessed as body weight loss at 20 mg/kg, ip QD administered 5 days a week for 4 weeks; type: organism-based, HCT-116; design: dose 20 mg/kg, route intraperitoneal; settings: in vivo
[7] = system: NCI-H460; assay: Antitumor activity against human H460 cells athymic nude Swiss mouse assessed as tumor volume inhibition at 100 mg/kg, ip QD administered 5 days a week for 2 weeks; type: functional; settings: route intraperitoneal
[8] = system: IGROV-1; assay: Cell cycle arrest in human IGROV1 cells assessed as accumulation at sub-G1 phase at IC80 after 24 hrs using propidium-iodide staining by flow-cytometry; type: functional, cell-based
[9] = system: IGROV-1; assay: Antiproliferative activity against human IGROV1 cells after 72 hrs by cell counting; settings: IGROV-1, 72 h
[10] = system: Mus musculus; assay: Toxicity in athymic nude Swiss mouse bearing human HCT116 cells assessed as body weight loss at 20 mg/kg, po QD administered 5 days a week for 4 weeks; type: organism-based, HCT-116; design: dose 20 mg/kg, route oral; settings: in vivo
[11] = system: IGROV-1; assay: Antitumor activity against human IGROV1 cells athymic nude Swiss mouse assessed as tumor volume inhibition at 20 mg/kg, po QD administered 5 days a week for 4 weeks; type: functional
[12] = system: HCT-116; assay: Antitumor activity against human HCT116 cells athymic nude Swiss mouse assessed as tumor volume inhibition at 20 mg/kg, po QD administered 5 days a week for 4 weeks; type: functional
[13] = system: HCT-116; assay: Antitumor activity against human HCT116 cells athymic nude Swiss mouse assessed as tumor volume inhibition at 20 mg/kg, ip QD administered 5 days a week for 4 weeks; type: functional; settings: HCT-116, ip, route intraperitoneal
[14] = system: NCI-H460; assay: animal or person; type: functional, Homo sapiens; settings: Mus musculus, route oral
Description: Antitumor activity against human H460 cells athymic nude Swiss mouse assessed as tumor volume inhibition at 100 mg/kg, po QD administered 5 days a week for 2 weeks

[15] = system: Mus musculus; assay: Toxicity in athymic nude Swiss mouse bearing human H460 cells assessed as body weight loss at 100 mg/kg, ip QD administered 5 days a week for 2 weeks; type: organism-based; design: dose 100 mg/kg, route intraperitoneal; settings: in vivo
[16] = system: IGROV-1; assay: Cell cycle arrest in cisplatin-resistant human IGROV1 cells assessed as partial accumulation at G2/M phase at IC80 using propidium-iodide staining by flow-cytometry; type: functional, cell-based
[17] = system: IGROV-1; assay: Cell cycle arrest in cisplatin-resistant human IGROV1 cells assessed as partial accumulation at S phase at IC80 using propidium-iodide staining by flow-cytometry; type: functional, cell-based
[18] = system: Mus musculus; assay: Toxicity in athymic nude Swiss mouse bearing human IGROV1 cells assessed as body weight loss at 20 mg/kg, po QD administered 5 days a week for 4 weeks; type: organism-based, IGROV-1; design: dose 20 mg/kg, route oral; settings: in vivo
[19] = system: IGROV-1; assay: Induction of apoptosis in human IGROV1 cells at IC80 after 72 hrs by TUNEL assay; type: functional
[20] = system: NB-4; assay: Antiproliferative activity against human NB4 cells after 72 hrs; type: functional, cell-based; settings: NB-4, 72 h
[21] = system: IGROV-1; assay: Cell cycle arrest in cisplatin-resistant human IGROV1 cells assessed as partial accumulation at S phase at IC90 using propidium-iodide staining by flow-cytometry; type: functional, cell-based
[22] = system: IGROV-1; assay: Induction of apoptosis in human IGROV1 cells at IC90 after 72 hrs by TUNEL assay; type: functional
[23] = system: IGROV-1; assay: Cell cycle arrest in cisplatin-resistant human IGROV1 cells assessed as partial accumulation at G2/M phase at IC90 using propidium-iodide staining by flow-cytometry; type: functional, cell-based
[24] = system: Mus musculus; assay: Toxicity in athymic nude Swiss mouse bearing human HCT116 cells assessed as body weight loss at 100 mg/kg, po QD administered 5 days a week for 4 weeks; type: organism-based, HCT-116; design: dose 100 mg/kg, route oral; settings: in vivo
[25] = system: IGROV-1; assay: Cell cycle arrest in human IGROV1 cells assessed as accumulation at sub-G1 phase at IC90 after 24 hrs using propidium-iodide staining by flow-cytometry; type: functional, cell-based
[26] = system: IGROV-1; assay: Antitumor activity against human IGROV1 cells athymic nude Swiss mouse assessed as tumor volume inhibition at 40 mg/kg, po QD administered 5 days a week for 4 weeks; type: functional
[27] = system: HCT-116; assay: Antitumor activity against human HCT116 cells athymic nude Swiss mouse assessed as tumor volume inhibition at 40 mg/kg, po QD administered 5 days a week for 4 weeks; type: functional
[28] = system: Mus musculus; assay: Toxicity in athymic nude Swiss mouse bearing human HCT116 cells assessed as body weight loss at 40 mg/kg, po QD administered 5 days a week for 4 weeks; type: organism-based, HCT-116; design: dose 40 mg/kg, route oral; settings: in vivo
[29] = system: Mus musculus; assay: Toxicity in athymic nude Swiss mouse bearing human IGROV1 cells assessed as body weight loss at 40 mg/kg, po QD administered 5 days a week for 4 weeks; type: organism-based, IGROV-1; design: dose 40 mg/kg, route oral; settings: in vivo

IC50 [3] [nM]	IC50 [4] [µM]	IC50 [5] [nM]	SMILES	IC50 [1] [nM]	IC50 [2] [µM]	Activity [8]	IC80 [9] [µM]	Activity [16]	Activity [17]	Activity [19] [%]	IC50 [20] [nM]	other results
1200	3.3		N#Cc1ccc(-c2ccc(/C=C/C=C/C(=O)NO)cc2)cc1	1050	3.1							
		3900	O=C(/C=C/Oc1ccc(-c2ccccc2)cc1)NO	5400	5.9							
1160	3.7	220	COc1ccc(-c2ccc(/C=C/C(=O)NO)cc2)cc1	750	2.3	Active	3	Active	Active	52		Activity [6]: 2%; inhibition in vivo at 100 mg/kg [7]: 39%; Activity [10]: 1%; inhibition in vivo at 20 mg/kg [11]: 71%; inhibition in vivo at 20 mg/kg [12]: 35%; inhibition in vivo at 20 mg/kg [13]: 50%; inhibition in vivo at 100 mg/kg [14]: 57%; Activity [15]: 4%; Activity [18]: 0%
820	5.4	1580	O=C(/C=C/c1ccc(-c2ccccc2)cc1)NO	3500	4						900	
> 5000			O=C(/C=C/c1ccc(-c2ccncc2)cc1)NO								3290	
> 5000		700	CN(C)c1ccc(-c2ccc(/C=C/C(=O)NO)cc2)cc1	1100	3.5	Active	3	Active	Active	89	860	
460	3.1	1460	O=C(/C=C/c1ccc(-c2ccc(O)c(Cl)c2)cc1)NO	4100	3.9	Active		Active	Active		580	
> 5000	> 20		COc1ccc(-c2ccc(/C=C/C=C/C(=O)NO)cc2)cc1	570	2.01		10			90		
> 5000	1.9	980	O=C(/C=C/C=C/c1ccc(-c2ccccc2)cc1)NO	1400	2.4	Active	3	Active	Active	89	660	
			O=Cc1ccc(-c2ccc(/C=C/C(=O)NO)cc2)cc1	12100	20.3							
220	3.8	800	O=C(/C=C/c1ccc(-c2ccc(CO)cc2)cc1)NO	8000	5.5	Active	15	Active	Active	90	1810	
330	5.7		N#Cc1ccc(-c2ccc(/C=C/C(=O)NO)cc2)cc1	2700	3.2	Active	10	Active	Active	90		inhibition in vivo at 20 mg/kg [11]: 37%; Activity [18]: 0%
		310	O=C(CCCCCCC(=O)Nc1ccccc1)NO [VORINOSTAT]	2200	2.2	Active		Active	Active	15		Activity [21]: Active; Activity [22]: 45%; Activity [23]: Active; Activity [24]: 4%; Activity [25]: Active
1860		510	O=C(/C=C/c1ccc(-c2ccc(Cl)cc2)cc1)NO	610	1.36	Active	2	Active	Active	77	760	
	6	330	O=C(/C=C/c1ccc(-c2ccc(O)cc2)cc1)NO	7600	6.5		20			40	2300	inhibition in vivo at 40 mg/kg [26]: 49%; inhibition in vivo at 20 mg/kg [11]: 44%; inhibition in vivo at 40 mg/kg [27]: 65%; Activity [18]: 2%; Activity [28]: 8%; Activity [29]: 6%
720	4.7	2700	O=C(CCCCc1ccc(-c2ccccc2)cc1)NO	8000	9.1	Active	12	Active	Active	65	860	
1200	14		O=C(/C=C/c1ccc(-c2ccc3[nH]ccc3c2)cc1)NO	22100	29.3						6500	
	9.5	4270	O=C(CCC1CCC(c2ccc(O)cc2)CC1)NO (configuration not stated)	31900	23.9						6900	
320	5.6	1640	O=C(/C=C/c1cccc(-c2ccc(O)cc2)c1)NO	> 10000	> 10						2850	
1700	15.2	260	O=C(CCc1ccc(-c2ccc(O)cc2)cc1)NO	800	0.95	Active	10	Active	Active	45	3900	

SMILES	IC50 [3] [nM]	IC50 [4] [µM]	IC50 [5] [nM]	IC50 [1] [nM]	IC50 [2] [µM]	Activity [8]	IC80 [9] [µM]	Activity [16]	Activity [17]	Activity [19] [%]	IC50 [20] [nM]	other results
O=C(/C=C/C1CCC(c2ccc(O)cc2)CC1)NO (configuration not stated)	310	2.2	370	2500	2.6						900	
O=C(/C=C/c1ccc(-c2cccs2)cc1)NO	450	2.8		2800	3.2	Active	7	Active	Active	90		
